Tested on: subcutaneous prostate cancer model (PC3)
Test: Tumour specific uptake of Evans Blue vs. Enhancement MI
Assay type: in vivo, mice
Conditions: ACT, Enhancement 0.5 MHz MI 0.2, compared to MI=0 (no ultrasound); 30 min after treatment
Procedure: To investigate the effect of MI variance of the US Enhancement field, tumour specific uptake of Evans Blue (EB, fluorescent dye) has been investigated in a subcutaneous prostate cancer model (PC3) in mice. Five groups with Enhancement insonation MIs of 0, 0.1, 0.2, 0.3 and 0.4 were investigated (N=3 animals per group). […] 30 min after treatment, the tumours were excised and the amount of EB was measured by spectrophotometry at 620 nm.

`Cc1cc(-c2ccc(/N=N/c3ccc4c(S(=O)(=O)O)cc(S(=O)(=O)O)c(N)c4c3O)c(C)c2)ccc1/N=N/c1ccc2c(S(=O)(=O)O)cc(S(=O)(=O)O)c(N)c2c1O` [Evans Blue] was tested. Which “increase in tumour specific uptake” value did it give?
Its value is roughly 60%.

— US20240216549A1, “ENHANCEMENT OF TREATMENT WITH IMMUNOTHERAPEUTIC AGENTS” (ACT THERAPEUTICS LTD, priority 2021, published 2024)
